Where two headings read alike, the source gives them in different places.
Experiments:
[1] = target: T1, DNMT1 (Homo sapiens, UniProt P26358); experiment: HotSpot radioisotope methyltransferase assay, DNMT1 (Poly dI-dC substrate); type: biochemical; details: for inhibition at 100 µM / relative enzymatic activity of DNMT1 / inhibition of DNMT1: 100 μM compound; for relative enzymatic activity of DNMT1: mean of two measurements ± SD; for inhibition of DNMT1: 100 µM
T1 construct: purchased Reaction Biology Corporation (contract screening service)
Method: First, the 10 compounds were tested at a single concentration (100 μM) in duplicate in a biochemical DNMT assay. […] Predicted binding modes for the five compounds were studied using molecular docking, implementing a novel re-scoring algorithm recently developed.
The inhibition of the enzymatic activity of DNMT1, DNMT3B, and DNMT3B/3L was tested using the HotSpot^SM platform for methyltransferase assays available at Reaction Biology Corporation. HotSpot^SM is a low volume radioisotope-based assay that uses tritium-labeled AdoMet (^3H-SAM) as a methyl donor. The test compounds diluted in dimethyl sulfoxide were added using acoustic technology (Echo550, Labcyte) into enzyme/substrate mixture in the nano-liter range. The corresponding reactions were commenced by the addition of ^3H-SAM and incubated at 30°C. Total final methylations on the substrate (Poly dI-dC in DNMT1 assay, and Lambda DNA in DNMT3B; DNMT3B/3L assay) were identified by a filter binding method implemented in Reaction Biology. Data analysis was conducted with Graphed Prism software (La Jolla, CA, USA) for curve fits. Reactions were carried out at 1 μM of SAM. […] The 10 compounds were tested first with DNMT1 and DNMT3B at one 100 μM concentration in duplicate. […] Theaflavin was also tested with DNMT3B and DNMT3B/L in 10-dose IC50 with threefold serial dilution starting at 100 μM.

[2] = target: T2, DNMT3B (Homo sapiens, UniProt Q9UBC3); experiment: HotSpot radioisotope methyltransferase assay, DNMT3B (Lambda DNA substrate); type: biochemical; details: for relative enzymatic activity of DNMT3B: mean of two measurements ± SD, 1 μM SAM
T2 construct: purchased Reaction Biology Corporation (contract screening service)
Method: First, the 10 compounds were tested at a single concentration (100 μM) in duplicate in a biochemical DNMT assay. SAH was used as a reference. […] Predicted binding modes for the five compounds were studied using molecular docking, implementing a novel re-scoring algorithm recently developed.
(§1) The inhibition of the enzymatic activity of DNMT1, DNMT3B, and DNMT3B/3L was tested using the HotSpot^SM platform for methyltransferase assays available at Reaction Biology Corporation. HotSpot^SM is a low volume radioisotope-based assay that uses tritium-labeled AdoMet (^3H-SAM) as a methyl donor. The test compounds diluted in dimethyl sulfoxide were added using acoustic technology (Echo550, Labcyte) into enzyme/substrate mixture in the nano-liter range. The corresponding reactions were commenced by the addition of ^3H-SAM and incubated at 30°C. Total final methylations on the substrate (Poly dI-dC in DNMT1 assay, and Lambda DNA in DNMT3B; DNMT3B/3L assay) were identified by a filter binding method implemented in Reaction Biology. Data analysis was conducted with Graphed Prism software (La Jolla, CA, USA) for curve fits. Reactions were carried out at 1 μM of SAM. In all assays, SAH was used as a standard positive control. The 10 compounds were tested first with DNMT1 and DNMT3B at one 100 μM concentration in duplicate. […] Theaflavin was also tested with DNMT3B and DNMT3B/L in 10-dose IC50 with threefold serial dilution starting at 100 μM. The authors have previously contracted the screening services of Reaction Biology Corporation to identify a novel inhibitor of DNMT1 [24].

[3] = test system: Hut78 cell line; details: read-out: IC50 for Hut78 cell line; cutaneous T cell lymphoma; cited from earlier work
[4] = test system: A549 cell line; details: read-out: IC50 for A549 cell line; human lung cancer cell line harboring wild-type p53; cited from earlier work
[5] = test system: U373MG cell line; details: read-out: IC50 for U373MG cell line; human glioblastoma cell line harboring inactive mutant p53; cited from earlier work
[6] = target: T3, DNMT3B/3L (Homo sapiens, UniProt Q9UBC3); experiment: HotSpot radioisotope methyltransferase assay, DNMT3B/3L (Lambda DNA substrate); type: biochemical; details: 10-dose, threefold serial dilution starting at 100 μM
T3 construct: purchased Reaction Biology Corporation (contract screening service)
Method: as §1

[7] = target: viral NS5 RNA methyltransferase; set-up: method as in PMID 20108931; details: cited from earlier work
[8] = target: viral NS5 RNA methyltransferase; set-up: method as in PMID 20108931; details: cited from earlier work; remark: listed apart in the source
[9] = Table 3, read-out: % Inhibition (DNMT1)
[10] = rounded values, read-out: inhibition of DNMT1
[11] = 10-dose, threefold serial dilution starting at 100 μM, 1 μM SAM, mean of two measurements, read-out: DNMT1 IC50
[12] = 100 μM compound, rounded values

T1 sequence (P26358 whole entry): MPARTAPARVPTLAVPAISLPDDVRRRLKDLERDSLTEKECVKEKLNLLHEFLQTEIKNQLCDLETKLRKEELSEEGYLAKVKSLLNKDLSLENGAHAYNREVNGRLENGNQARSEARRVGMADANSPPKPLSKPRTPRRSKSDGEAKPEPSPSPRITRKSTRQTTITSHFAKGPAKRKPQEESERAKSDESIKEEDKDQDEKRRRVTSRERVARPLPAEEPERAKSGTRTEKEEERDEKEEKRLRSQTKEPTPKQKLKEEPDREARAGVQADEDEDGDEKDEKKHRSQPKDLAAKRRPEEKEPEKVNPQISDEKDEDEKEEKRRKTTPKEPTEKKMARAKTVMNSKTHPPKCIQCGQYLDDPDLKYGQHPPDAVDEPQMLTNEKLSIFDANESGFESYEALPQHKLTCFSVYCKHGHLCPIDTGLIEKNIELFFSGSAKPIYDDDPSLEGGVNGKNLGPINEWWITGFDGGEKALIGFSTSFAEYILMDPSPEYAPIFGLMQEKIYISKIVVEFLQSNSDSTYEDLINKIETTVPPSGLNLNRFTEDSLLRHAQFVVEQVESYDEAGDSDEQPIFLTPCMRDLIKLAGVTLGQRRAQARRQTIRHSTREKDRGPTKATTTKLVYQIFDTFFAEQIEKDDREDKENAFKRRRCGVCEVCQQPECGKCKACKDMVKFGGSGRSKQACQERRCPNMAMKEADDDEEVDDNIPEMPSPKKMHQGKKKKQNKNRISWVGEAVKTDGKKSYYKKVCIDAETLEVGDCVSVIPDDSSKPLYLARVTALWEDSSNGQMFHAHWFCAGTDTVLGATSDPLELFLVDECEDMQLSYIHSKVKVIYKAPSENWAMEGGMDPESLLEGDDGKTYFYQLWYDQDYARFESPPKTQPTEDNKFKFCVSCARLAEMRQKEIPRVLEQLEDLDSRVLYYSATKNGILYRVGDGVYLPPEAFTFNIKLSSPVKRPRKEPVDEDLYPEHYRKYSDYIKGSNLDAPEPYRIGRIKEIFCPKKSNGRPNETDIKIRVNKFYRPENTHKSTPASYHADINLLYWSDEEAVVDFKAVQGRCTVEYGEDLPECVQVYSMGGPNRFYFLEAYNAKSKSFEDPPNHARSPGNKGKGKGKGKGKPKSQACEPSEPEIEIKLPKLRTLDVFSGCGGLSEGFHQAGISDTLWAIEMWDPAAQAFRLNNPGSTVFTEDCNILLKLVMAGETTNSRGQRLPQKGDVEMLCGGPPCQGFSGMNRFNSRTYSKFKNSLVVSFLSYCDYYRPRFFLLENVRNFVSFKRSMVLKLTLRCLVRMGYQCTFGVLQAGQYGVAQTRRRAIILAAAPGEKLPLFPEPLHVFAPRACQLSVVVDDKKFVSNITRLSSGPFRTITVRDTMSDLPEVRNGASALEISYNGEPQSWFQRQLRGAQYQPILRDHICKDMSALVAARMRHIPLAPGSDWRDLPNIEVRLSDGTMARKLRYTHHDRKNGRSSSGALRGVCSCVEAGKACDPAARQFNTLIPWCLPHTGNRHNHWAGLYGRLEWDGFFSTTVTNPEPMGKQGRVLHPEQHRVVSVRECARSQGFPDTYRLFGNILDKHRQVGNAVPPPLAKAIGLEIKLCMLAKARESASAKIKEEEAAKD

| Compound | inhibition at 100 µM [1, 9] [%] | relative enzymatic activity of DNMT1 ([1]; 1 μM SAM) | inhibition at 100 µM [1, 10] [%] | relative enzymatic activity of DNMT3B ([2]; 100 μM compound) | IC50 [1, 11] [µM] | also measured |
| --- | --- | --- | --- | --- | --- | --- |
| Cc1ccnc2nc(C(=O)Nc3nc(-c4ccc5c(c4)OCO5)cs3)nn12 [CSC026286840] | 26.6 | 73.45 (±3.06) % | 27 | 90.59 (±2.49) % |  | inhibition of DNMT1 ([1]; rounded values): 30% |
| O=C(O)c1ccc(NS(=O)(=O)c2ccc(N3CCCC3=O)cc2)cc1 [CSC027083851] | -5.71 | 105.71 (±1.27) % |  | 97.85 (±5.66) % |  |  |
| Cc1cc(NC(=O)CN2CCN(c3cc(C(N)=O)c4ccccc4n3)CC2)no1 [CSC027480404] | 30 | 70.63 (±0.19) % | 29 | 96.39 (±0.28) % |  | inhibition of DNMT1 ([1]; rounded values): 30% |
| Cc1cc(NCc2nnc(Cc3ccccc3)o2)ccc1C(N)=O [CSC027694519] | 64.6 | 35.42 (±1.78) % | 65 | 97.42 (±2.49) % | 85.1 |  |
| CC(C)(CC(=O)Nc1cccc(Cn2cccn2)c1)C(=O)O [CSC027796832] | -7.25 | 107.25 (±0.59) % |  | 95.28 (±0.47) % |  |  |
| COc1ccc(Cl)cc1C(=O)NCCc1ccc(S(=O)(=O)NC(=O)NC2CCCCC2)cc1 [Glyburide, reference compound] | 60 | 40.04 (±0.78) % | 60 | 95.97 (±4.76) % | 55.9 |  |
| NNc1nncc2ccccc12 [Hydralazine] |  |  |  |  |  | IC50 [3]: 30 µM; IC50 [4]: 2 µM; IC50 [5]: 20 µM |
| Cc1[nH]c2ccccc2c1CCNCc1ccc(/C=C/C(=O)NO)cc1 [Panobinostat, reference compound] | 62.7 |  | 63 |  |  |  |
| O=c1c(O)cc([C@H]2Oc3cc(O)cc(O)c3C[C@H]2O)cc2c([C@H]3Oc4cc(O)cc(O)c4C[C@H]3O)cc(O)c(O)c12 [Theaflavin] | 65.4 | 34.62 (±0.06) % | 65 | 66.75 (±1.11) % | 85.3 | inhibition at 100 µM [2, 12]: 33%; IC50 ([2]; 10-dose, threefold serial dilution starting at 100 μM): > 100 µM; IC50 [6]: > 100 µM |
| COc1ccc(S(=O)(=O)Nc2c(C)n(C)n(-c3ccccc3)c2=O)cc1C(=O)O [compound 6631802] | 6.74 | 93.26 (±7.97) % |  | 93.54 (±0.54) % |  |  |
| Cc1ccc(Cl)cc1NS(=O)(=O)c1ccc(NS(=O)(=O)c2ccc3ccccc3c2)cc1 [compound 7936171] | 62.3 | 37.74 (±2.15) % | 62 | 78.20 (±0.30) % | 78.5 | EC50 [7]: 12 µM; IC50 [8]: 64.2 µM; IC50 ([1]; -log value of the IC50, read-out: pIC50 (DNMT1) (converted)): 77.6 µM; inhibition at 100 µM [2, 12]: 22%; inhibition of DNMT3B ([2]; 100 μM compound, rounded values, listed as naphthalene sulfonamide, 100 µM): higher than 20% |
